Assay results taken from US8952024B2, “Herbicidal pyrimidone derivatives” (E I du Pont de Nemours and Company, priority 2009, dated 2015).

Key:
Type in all cases: in vivo
[1] = test system: barnyardgrass (Echinochloa crus-galli); assay: Test A pre-/postemergence plant response
Method in brief: (§1)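 Both pre- and postemergence treatments are applied simultaneously, using chemicals formulated in a non-phytotoxic solvent mixture with surfactant. Postemergence plants are 2–10 cm high with one to two leaves. After approximately ten days in a greenhouse, injury is scored visually from 0 (none) to 100 (complete control) relative to untreated plants.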

[2] = test system: pigweed (Amaranthus retroflexus); assay: Test A pre-/postemergence plant response
Method in brief: as §1

[3] = test system: downy bromegrass (Bromus tectorum); assay: Test B pre-/postemergence plant response
Method in brief: (§2)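 Visual ratings on a 0–100 scale (100 = complete control) were made versus untreated controls 13–15 days after treatment in a greenhouse. Compounds in surfactant-containing non-phytotoxic solvent were applied preemergence to seeds in loam–sand blend or postemergence to 1- to 4-leaf plants (2–18 cm).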

[4] = test system: woolly cupgrass (Eriochloa villosa); assay: Test B pre-/postemergence plant response
Method in brief: as §2

[5] = test system: morningglory (Ipomoea coccinea); assay: Test B pre-/postemergence plant response
Method in brief: as §2

[6] = test system: wheat (Triticum aestivum); assay: Test B pre-/postemergence plant response
Method in brief: as §2

[7] = test system: yellow nutsedge (Cyperus esculentus); assay: Test B pre-/postemergence plant response
Method in brief: as §2

[8] = test system: goosegrass (Eleusine indica); assay: Test B pre-/postemergence plant response
Method in brief: as §2

[9] = test system: Italian ryegrass (Lolium multiflorum); assay: Test B pre-/postemergence plant response
Method in brief: as §2

[10] = test system: large crabgrass (Digitaria sanguinalis); assay: Test B pre-/postemergence plant response
Method in brief: as §2

[11] = test system: blackgrass (Alopecurus myosuroides); assay: Test B pre-/postemergence plant response
Method in brief: as §2

[12] = test system: velvetleaf (Abutilon theophrasti); assay: Test B pre-/postemergence plant response
Method in brief: as §2

[13] = test system: Surinam grass (Brachiaria decumbens); assay: Test B pre-/postemergence plant response
Method in brief: as §2

[14] = Postemergence, 125 g ai/ha, visual injury, 0 to 100 scale (0 no effect, 100 complete control), approx. ten days
[15] = Postemergence, 500 g ai/ha, 0 to 100 scale, 0 = no effect, 100 = complete control, approx. ten days
[16] = Preemergence, 125 g ai/ha, 0 to 100 scale, 0 = no effect, 100 = complete control
[17] = Preemergence, 500 g ai/ha, visual injury, 0 to 100 scale (0 no effect, 100 complete control), approx. ten days
[18] = 250 g ai/ha, Preemergence, 0 to 100 scale
[19] = Postemergence, 31 g ai/ha, scale 0 to 100 (0 no effect, 100 complete control)
[20] = Postemergence, 62 g ai/ha, scale 0 (no effect) to 100 (complete control), 13 to 15 days
[21] = Postemergence, 125 g ai/ha, visual rating after 13 to 15 days, scale 0 (no effect) to 100 (complete control)
[22] = Postemergence, 250 g ai/ha, scale 0 to 100
[23] = Preemergence, 62 g ai/ha, scale 0 to 100, 0 no effect, 100 complete control
[24] = Preemergence, 125 g ai/ha, 0 to 100 scale
[25] = Preemergence, 31 g ai/ha, scale 0 to 100 (0 no effect, 100 complete control)
[26] = Postemergence, 125 g ai/ha, 0 to 100 scale where 0 is no effect and 100 is complete control
[27] = Postemergence, 500 g ai/ha, visual injury, 0 to 100 scale (0 no effect, 100 complete control), approx. ten days
[28] = Preemergence, 500 g ai/ha, 0 to 100 scale, 0 = no effect, 100 = complete control
[29] = 62 g ai/ha, postemergence, 0 is no effect, 100 is complete control, 13 to 15 days
[30] = Postemergence, 31 g ai/ha, 0 to 100 scale (0 no effect, 100 complete control)
[31] = Postemergence, 125 g ai/ha, scale 0 to 100 (0 no effect, 100 complete control)
[32] = Postemergence, 250 g ai/ha, scale 0 to 100 (0 no effect, 100 complete control), 13 to 15 days

SMILES: O=C1CCCC(O)=C1C(=O)c1cnc(-c2cccc(Cl)c2)n(-c2ccccc2)c1=O [Compound 34]
- Barnyardgrass plant response rating [1, 14]: 90
- Plant response rating, Barnyardgrass [1, 15]: 100
- Plant response rating, Barnyardgrass [1, 16]: 10
- Plant response rating, Barnyardgrass [1, 17]: 100
- Pigweed plant response rating [2, 14]: 100
- Plant response rating, Pigweed [2, 15]: 100
- Plant response rating, Pigweed [2, 16]: 90
- Plant response rating, Pigweed [2, 17]: 100
- Plant response rating, Bromegrass, Downy [3, 18]: 80
- Plant response rating, Bromegrass, Downy [3, 19]: 40
- Plant response rating, Bromegrass, Downy [3, 20]: 50
- Plant response rating, Bromegrass, Downy [3, 21]: 50
- Bromegrass, Downy plant response rating [3, 22]: 50
- Plant response rating, Bromegrass, Downy [3, 23]: 0
- Bromegrass, Downy plant response rating [3, 24]: 10
- Plant response rating, Cupgrass, Woolly [4, 18]: 100
- Plant response rating, Cupgrass, Woolly [4, 19]: 80
- Plant response rating, Cupgrass, Woolly [4, 20]: 80
- Plant response rating, Cupgrass, Woolly [4, 21]: 90
- Cupgrass, Woolly plant response rating [4, 22]: 95
- Plant response rating, Cupgrass, Woolly [4, 25]: 100
- Plant response rating, Cupgrass, Woolly [4, 23]: 100
- Cupgrass, Woolly plant response rating [4, 24]: 100
- Plant response rating, Morningglory [5, 18]: 98
- Plant response rating, Morningglory [5, 20]: 80
- Plant response rating, Morningglory [5, 21]: 85
- Plant response rating, Morningglory [5, 25]: 0
- Plant response rating, Morningglory [5, 23]: 0
- Morningglory plant response rating [5, 24]: 75
- Plant response rating, Wheat [6, 18]: 0
- Plant response rating, Wheat [6, 20]: 10
- Plant response rating, Wheat [6, 21]: 35
- Plant response rating, Wheat [6, 23]: 0
- Wheat plant response rating [6, 24]: 0
- Plant response rating, Nutsedge, Yellow [7, 18]: 90
- Plant response rating, Nutsedge, Yellow [7, 20]: 25
- Plant response rating, Nutsedge, Yellow [7, 21]: 55
- Plant response rating, Nutsedge, Yellow [7, 25]: 10
- Plant response rating, Nutsedge, Yellow [7, 23]: 45
- Nutsedge, Yellow plant response rating [7, 24]: 75
- Plant response rating, Goosegrass [8, 18]: 100
- Plant response rating, Goosegrass [8, 20]: 80
- Plant response rating, Goosegrass [8, 21]: 90
- Goosegrass plant response rating [8, 22]: 95
- Plant response rating, Goosegrass [8, 25]: 95
- Goosegrass plant response rating [8, 24]: 100
- Plant response rating, Ryegrass, Italian [9, 18]: 10
- Plant response rating, Ryegrass, Italian [9, 20]: 10
- Plant response rating, Ryegrass, Italian [9, 21]: 20
- Plant response rating, Ryegrass, Italian [9, 25]: 0
- Plant response rating, Ryegrass, Italian [9, 23]: 0
- Ryegrass, Italian plant response rating [9, 24]: 5
- Plant response rating, Crabgrass, Large [10, 18]: 100
- Plant response rating, Crabgrass, Large [10, 19]: 80
- Plant response rating, Crabgrass, Large [10, 20]: 85
- Plant response rating, Crabgrass, Large [10, 21]: 95
- Crabgrass, Large plant response rating [10, 22]: 98
- Plant response rating, Crabgrass, Large [10, 25]: 55
- Plant response rating, Crabgrass, Large [10, 23]: 100
- Crabgrass, Large plant response rating [10, 24]: 100
- Plant response rating, Blackgrass [11, 18]: 50
- Plant response rating, Blackgrass [11, 19]: 0
- Plant response rating, Blackgrass [11, 20]: 5
- Plant response rating, Blackgrass [11, 21]: 10
- Blackgrass plant response rating [11, 22]: 40
- Plant response rating, Blackgrass [11, 25]: 0
- Plant response rating, Blackgrass [11, 23]: 5
- Blackgrass plant response rating [11, 24]: 50
- Plant response rating, Velvetleaf [12, 18]: 100
- Plant response rating, Velvetleaf [12, 20]: 95
- Plant response rating, Velvetleaf [12, 21]: 98
- Plant response rating, Velvetleaf [12, 25]: 75
- Plant response rating, Velvetleaf [12, 23]: 85
- Velvetleaf plant response rating [12, 24]: 95
- Plant response rating, Surinam Grass [13, 18]: 90
- Plant response rating, Surinam Grass [13, 20]: 75
- Plant response rating, Surinam Grass [13, 21]: 80
- Plant response rating, Surinam Grass [13, 25]: 5
- Plant response rating, Surinam Grass [13, 23]: 60
- Surinam Grass plant response rating [13, 24]: 65

SMILES: O=C1CCCC(O)=C1C(=O)c1cnc(C2CC2)n(C2CCCCC2)c1=O [Compound 160]
- Plant response rating, Barnyardgrass [1, 26]: 90
- Barnyardgrass plant response rating [1, 27]: 100
- Plant response rating, Barnyardgrass [1, 16]: 40
- Plant response rating, Barnyardgrass [1, 28]: 80
- Plant response rating, Pigweed [2, 26]: 100
- Pigweed plant response rating [2, 27]: 100
- Plant response rating, Pigweed [2, 16]: 80
- Plant response rating, Pigweed [2, 28]: 100
- Bromegrass, Downy plant response rating (0 to 100 scale) [3, 29]: 5
- Plant response rating, Bromegrass, Downy [3, 30]: 0
- Plant response rating, Bromegrass, Downy [3, 31]: 50
- Plant response rating, Bromegrass, Downy [3, 32]: 55
- Plant response rating, Cupgrass, Woolly [4, 30]: 65
- Plant response rating, Cupgrass, Woolly [4, 31]: 85
- Plant response rating, Cupgrass, Woolly [4, 32]: 95
- Plant response rating, Morningglory [5, 30]: 75
- Plant response rating, Morningglory [5, 31]: 100
- Plant response rating, Morningglory [5, 32]: 100
- Plant response rating, Wheat [6, 30]: 10
- Plant response rating, Wheat [6, 31]: 40
- Plant response rating, Wheat [6, 32]: 45
- Plant response rating, Nutsedge, Yellow [7, 30]: 65
- Plant response rating, Nutsedge, Yellow [7, 31]: 80
- Plant response rating, Nutsedge, Yellow [7, 32]: 80
- Plant response rating, Goosegrass [8, 30]: 80
- Plant response rating, Goosegrass [8, 31]: 90
- Plant response rating, Goosegrass [8, 32]: 90
- Plant response rating, Ryegrass, Italian [9, 30]: 0
- Plant response rating, Ryegrass, Italian [9, 31]: 35
- Plant response rating, Ryegrass, Italian [9, 32]: 35
- Plant response rating, Crabgrass, Large [10, 30]: 80
- Plant response rating, Crabgrass, Large [10, 31]: 95
- Plant response rating, Crabgrass, Large [10, 32]: 95
- Blackgrass plant response rating (0 to 100 scale) [11, 29]: 10
- Plant response rating, Blackgrass [11, 30]: 5
- Plant response rating, Blackgrass [11, 31]: 20
- Plant response rating, Blackgrass [11, 32]: 25
- Plant response rating, Velvetleaf [12, 30]: 90
- Plant response rating, Velvetleaf [12, 31]: 100
- Plant response rating, Velvetleaf [12, 32]: 100
- Plant response rating, Surinam Grass [13, 30]: 40
- Plant response rating, Surinam Grass [13, 31]: 60
- Plant response rating, Surinam Grass [13, 32]: 75
